From US20260250250A1, “3-(SULPHONYL OR SULFONIMIDOYL)PROP-2-EN-1-YL]-2-OXO-1,2-DIHYDROPYRIDINE-3-CARBOXAMIDE DERIVATIVES” (Flinder Therapeutics B.V., priority 2022, published 2026)
Like-named read-outs stand apart in the source and are kept apart here.

Columns and labels:
[1] = target: T1, human E3 ubiquitin-protein ligase RNF31 (HOIP) (Homo sapiens, UniProt Q96EP0); experiment: Cell-free HTRF-based HOIP inhibition assay; type: biochemical
T1 sequence (Q96EP0 695-1072 limits assumed): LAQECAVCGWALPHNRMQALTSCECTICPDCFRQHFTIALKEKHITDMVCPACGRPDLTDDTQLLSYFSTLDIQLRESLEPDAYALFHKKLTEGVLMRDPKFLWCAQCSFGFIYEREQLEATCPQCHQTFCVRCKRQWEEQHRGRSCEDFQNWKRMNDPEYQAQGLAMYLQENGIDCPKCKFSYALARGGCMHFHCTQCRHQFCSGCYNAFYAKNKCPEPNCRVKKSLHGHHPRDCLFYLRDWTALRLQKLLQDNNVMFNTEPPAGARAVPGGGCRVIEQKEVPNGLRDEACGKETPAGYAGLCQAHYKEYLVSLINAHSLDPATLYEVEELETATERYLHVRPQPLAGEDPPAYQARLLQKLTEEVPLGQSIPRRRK
In short: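 Recombinant human HOIP fragment (E. coli) preincubated with compounds (100-0.005 μM, 1% DMSO) and E1 for 1 h at 25° C. E2 and substrates then added; reaction 2.5 h at 25° C. HTRF read-out, excitation 337 nm, emissions 665/620 nm.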

NF-κB signaling pathway = experiment: Cell-based dual luciferase NF-κB reporter assay (HEK293 cells, TNF stimulated)
In short: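 HEK293 cells transfected with Firefly luciferase and NF-κB-response-element NanoLuc plasmids; compounds at 100–0.005 µM in 1% DMSO. Cells stimulated with 2.5 ng/mL TNF 30 min after compound addition. Firefly and NanoLuc activities read after 6 h by Nano-Glo dual-luciferase detection.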

[2] = test system: bladder carcinoma RT4 cell line; experiment: TNF-α-induced cytotoxicity assay (CellTiter-Glo viability); type: cell-based
In short: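 RT4 bladder carcinoma cells, 1000 per well, stimulated with 1.25 ng/mL TNFα together with compound for 72 h at 37° C., 5% CO2. Viability read by CellTiter-Glo luminescence, proportional to cellular ATP, as a measure of HOIP-dependent cytotoxicity.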

| SMILES | IC50 ([1]; bin printed as 100 nM < IC50 ≤ 1.0 μM (lower bound in the cell to the left)) [µM] | IC50 (NF-κB signaling pathway; HEK293, 2.5 ng/mL TNF, bin printed as 1.0 μM < IC50 ≤ 10 μM (lower bound in the cell to the left)) [µM] | IC50 ([2]; RT4, 1.25 ng/mL TNFα, 72 h, bin printed as 1.0 μM < IC50 ≤ 10 μM (lower bound in the cell to the left)) [µM] | IC50 [1] [µM] | IC50 (NF-κB signaling pathway; Homo sapiens, HEK293) [µM] | IC50 ([2]; Homo sapiens, RT-4, 72 h) [µM] |
| --- | --- | --- | --- | --- | --- | --- |
| O=C(NCC=CS(=O)(=O)c1ccccc1)c1cc2c([nH]c1=O)CCN(C(=O)OC1CCOC1)C2 [Example 82, (3R)-oxolan-3-vi 3-{[(2E)-3-(benzenesulfonyl)prop-2-en-1-yl]carbamoyl}-2-oxo-1,2,5,6,7,8-hexahydro-1,6-naphthyridine-6-carboxylate] | ≤ 1 | ≤ 10 | ≤ 10 |  |  |  |
| O=C(NC/C=C/S(=O)(=O)c1ccc(Cl)cc1)c1cc2c([nH]c1=O)CCN(Cc1ccccc1)C2 [Example 29, 6-benzyl-N-[(2E)-3-(4-chlorobenzenesulfonyl)prop-2-en-1-yl]-2-oxo-1,2,5,6,7,8-hexahydro-1,6-naphthyridine-3-carboxamide] |  |  |  | ≤ 0.1 | ≤ 1 | ≤ 1 |
| O=C(NC/C=C/S(=O)(=O)c1ccccc1)c1cc2c([nH]c1=O)CCC(F)(F)C2 [Example 49, N-[(2E)-3-(benzenesulfonyl)prop-2-en-1-yl]-6,6-difluoro-2-oxo-1,2,5,6,7,8-hexahydroquinoline-3-carboxamide] |  |  |  | ≤ 1 | ≤ 10 | ≤ 10 |
| N=S(=O)(/C=C/CNC(=O)c1cc2c([nH]c1=O)CCCC2)c1ccccc1 (stereo not drawn) [Example 60, N-[(2E)-3-[imino(oxo)phenyl-λ^6-sulfanyl]prop-2-en-1-yl]-2-oxo-1,2,5,6,7,8-hexahydroquinoline-3-carboxamide] |  |  |  | ≤ 1 | ≤ 1 | ≤ 10 |
| CC12CC(C(=O)N3CCc4[nH]c(=O)c(C(=O)NC/C=C/S(=O)(=O)c5ccccc5)cc4C3)(C1)C2 [Example 114, N-[(2E)-3-(benzenesulfonyl)prop-2-en-1-yl]-6-{3-methylbicyclo[1.1.1]pentane-1-carbonyl}-2-oxo-1,2,5,6,7,8-hexahydro-1,6-naphthyridine-3-carboxamide] |  |  |  | ≤ 1 | ≤ 10 | ≤ 100 |
| COCC(C)OC(=O)N1CCc2[nH]c(=O)c(C(=O)NC/C=C/S(=O)(=O)c3ccccc3)cc2C1 (stereo not drawn) [Example 75, 1-methoxypropan-2-vi 3-{[(2E)-3-(benzenesulfonyl)prop-2-en-1-yl]carbamoyl}-2-oxo-1,2,5,6,7,8-hexahydro-1,6-naphthyridine-6-carboxylate] |  |  |  | ≤ 1 | ≤ 10 | ≤ 10 |
| O=C(NC/C=C/S(=O)(=O)c1ccc(Cl)cn1)c1cc2c([nH]c1=O)CCN(C(=O)OCC1CC1)C2 [Example 95, cyclopropylmethyl 3-{[(2E)-3-[(5-chloropyridin-2-yl)sulfonyl]prop-2-en-1-yl]carbamoyl}-2-oxo-1,2,5,6,7,8-hexahydro-1,6-naphthyridine-6-carboxylate] |  |  |  | ≤ 0.1 | ≤ 1 | ≤ 10 |
| N=S(=O)(/C=C/CNC(=O)c1cc2c([nH]c1=O)CCCC2)c1ccccc1F (stereo not drawn) [Example 132, N-[(2E)-3-[(2-fluorophenyl)(imino)oxo-λ^6-sulfanyl]prop-2-en-1-yl]-2-oxo-1,2,5,6,7,8-hexahydroquinoline-3-carboxamide] |  |  |  | ≤ 1 | ≤ 1 | ≤ 10 |
| O=C(NC/C=C/S(=O)(=O)c1ccccc1)c1cc2c([nH]c1=O)CCN(C(=O)OC1CCC3(CC1)COC3)C2 [Example 79, 2-Oxaspiro[3.5]nonan-7-vi 3-{[(2E)-3-(benzenesulfonyl)prop-2-en-1-yl]carbamoyl}-2-oxo-1,2,5,6,7,8-hexahydro-1,6-naphthyridine-6-carboxylate] |  |  |  | ≤ 0.1 | ≤ 10 | ≤ 10 |
| COc1ccc(S(=O)(=O)/C=C/CNC(=O)c2cc3c([nH]c2=O)CCCC3)cc1 [Example 40, N-[(2E)-3-(4-methoxybenzenesulfonyl)prop-2-en-1-yl]-2-oxo-1,2,5,6,7,8-hexahydroquinoline-3-carboxamide] |  |  |  | ≤ 1 | ≤ 1 | ≤ 1 |
| COc1ccc(S(=N)(=O)/C=C/CNC(=O)c2cc3c([nH]c2=O)CCC(C(F)(F)F)C3)cc1F (stereo not drawn) [Example 147, N-[(2E)-3-[(3-fluoro-4-methoxyphenyl)(imino)oxo-λ^6-sulfanyl]prop-2-en-1-yl]-2-oxo-6-(trifluoromethyl)-1,2,5,6,7,8-hexahydroquinoline-3-carboxamide] |  |  |  | ≤ 1 | ≤ 10 | ≤ 10 |
| O=C(NC/C=C/S(=O)(=O)c1ccc(Cl)cc1)c1cc2c([nH]c1=O)CCN(C(=O)NCC1CC1)C2 [Example 100, N3-[(2E)-3-(4-chlorobenzenesulfonyl)prop-2-en-1-yl]-N6-(cyclopropylmethyl)-2-oxo-1,2,5,6,7,8-hexahydro-1,6-naphthyridine-3,6-dicarboxamide] |  |  |  | ≤ 1 | ≤ 100 | ≤ 100 |
| N=S(=O)(/C=C/CNC(=O)c1cc2c([nH]c1=O)CCN(C(=O)OCC1CC1)C2)c1ccccc1 (stereo not drawn) [Example 179, cyclopropylmethyl 3-{[(2E)-3-[imino(oxo)phenyl-λ^6-sulfanyl]prop-2-en-1-yl]carbamoyl}-2-oxo-1,2,5,6,7,8-hexahydro-1,6-naphthyridine-6-carboxylate] |  |  |  | ≤ 1 | ≤ 10 | ≤ 10 |
| COCCS(=O)(=O)N1CCc2[nH]c(=O)c(C(=O)NC/C=C/S(=O)(=O)c3ccccc3)cc2C1 [Example 103, N-[(2E)-3-(benzenesulfonyl)prop-2-en-1-yl]-6-(2-methoxyethanesulfonyl)-2-oxo-1,2,5,6,7,8-hexahydro-1,6-naphthyridine-3-carboxamide] |  |  |  | ≤ 1 | ≤ 100 | ≤ 100 |
| O=C(NC/C=C/S(=O)(=O)c1ccc(Cl)cc1)c1cc2c([nH]c1=O)CCCC2 [Example 21, N-[(2E)-3-(4-chlorobenzenesulfonyl)prop-2-en-1-yl]-2-oxo-1,2,5,6,7,8-hexahydroquinoline-3-carboxamide] |  |  |  | ≤ 0.1 | ≤ 0.1 | ≤ 1 |
| O=C(NC/C=C/S(=O)(=O)c1ccccc1)c1cc2c([nH]c1=O)CCN(C(=O)OC1CCCC1)C2 [Example 84, cyclopentyl 3-{[(2E)-3-(benzenesulfonyl)prop-2-en-1-yl]carbamoyl}-2-oxo-1,2,5,6,7,8-hexahydro-1,6-naphthyridine-6-carboxylate] |  |  |  | ≤ 0.1 | ≤ 1 | ≤ 1 |
| CC(C)(C)NC(=O)N1CCc2[nH]c(=O)c(C(=O)NC/C=C/S(=O)(=O)c3ccc(Cl)cc3)cc2C1 [Example 99, N6-tert-butyl-N3-[(2E)-3-(4-chlorobenzenesulfonyl)prop-2-en-1-yl]-2-oxo-1,2,5,6,7,8-hexahydro-1,6-naphthyridine-3,6-dicarboxamide] |  |  |  | ≤ 1 | ≤ 10 | ≤ 10 |
| N=S(=O)(/C=C/CNC(=O)c1cc2c([nH]c1=O)CCCC2)c1ccc(OC(F)(F)F)cc1 (stereo not drawn) [Example 65, N-[(2E)-3-[imino(oxo)[4-(trifluoromethoxy)phenyl]-%^6-sulfanyl]prop-2-en-1-yl]-2-oxo-1,2,5,6,7,8-hexahydroquinoline-3-carboxamide] |  |  |  | ≤ 1 | ≤ 1 | ≤ 1 |
| COc1ccc(S(=N)(=O)/C=C/CNC(=O)c2cc3c([nH]c2=O)CCN(CC(F)(F)F)C3)cc1F (stereo not drawn) [Example 170, N-[(2E)-3-[(3-fluoro-4-methoxyphenyl)(imino)oxo-λ^6-sulfanyl]prop-2-en-1-yl]-2-oxo-6-(2,2,2-trifluoroethyl)-1,2,5,6,7,8-hexahydro-1,6-naphthyridine-3-carboxamide] |  |  |  | ≤ 1 | ≤ 10 | ≤ 10 |
| COc1ccc(S(=N)(=O)/C=C/CNC(=O)c2cc3ccccc3[nH]c2=O)cc1F (stereo not drawn) [Example 143, N-[(2E)-3-[(3-fluoro-4-methoxyphenyl)(imino)oxo-λ^6-sulfanyl]prop-2-en-1-yl]-2-oxo-1,2-dihydroquinoline-3-carboxamide] |  |  |  | ≤ 0.1 | ≤ 1 | ≤ 1 |
| O=C(NC/C=C/S(=O)(=O)c1ccc(F)cc1F)c1cc2c([nH]c1=O)CCCCC2 [Example 34, N-[(2E)-3-(2,4-difluorobenzenesulfonyl)prop-2-en-1-yl]-2-oxo-1H,2H,5H,6H,7H,8H,9H-cyclohepta[b]pyridine-3-carboxamide] |  |  |  | ≤ 1 | ≤ 1 | ≤ 1 |
| Cn1ncc2c(CN3CCc4[nH]c(=O)c(C(=O)NC/C=C/S(=O)(=O)c5ccccc5)cc4C3)cccc21 [Example 121, N-[(2E)-3-(benzenesulfonyl)prop-2-en-1-yl]-6-[(1-methyl-1H-indazol-4-yl)methyl]-2-oxo-1,2,5,6,7,8-hexahydro-1,6-naphthyridine-3-carboxamide] |  |  |  | ≤ 0.1 | ≤ 1 | ≤ 10 |
